Source: patent publication US20080227638A1, “Use of abscisic acid to enhance growth control” (priority 2007, published 2008)

Legend:
Assay type in all cases: in vivo
Kentucky bluegrass [1] = assay: Greenhouse Kentucky bluegrass height and quality, ABA and paclobutrazol (Example 2)
Experimental: (§1) Greenhouse studies were conducted at the Research Farm of Valent BioSciences Corporation (Long Grove, Ill.). Grasses were grown in pots (18 cm in diameter and 18 cm in height) filled with Promix BX (available from Premier Horticulture Inc. Quakertown, Pa.). Grass was irrigated daily by an overhead irrigation system. The irrigation system was set up with multiple Tornado Mist Spray Heads (10 GPH at 40 PSI-Wetted diameter, NDS/Raindrip, Woodland Hills, Calif.). Spray heads were 1-meter apart from each other and 75 cm above grass canopy. Grass was cut with a scissor at 2.5 cm height and fertilizer (1 g/L all purpose fertilizer 20-20-20, available from The Scotts Company, Marysville, Ohio) was applied once per week.
(§2) Chemical solutions were prepared with distilled water. Tween 20 (0.05% v/v) was used as an, adjuvant. Both trinexapac-ethyl (commercial product Primo Maxx, 11.3% active ingredient) and paclobutrazol (commercial product Trimmit 2SC, 22.3% active ingredient) were purchased from Syngenta Crop Protection Inc. (Greensboro, N.C.). Uniconazole-P (commercial product Sumagic, 0.55% active ingredient) was obtained from Valent U.S.A. Corporation (Walnut Creek, Calif.).
(§3) When treated with paclobutrazol or uniconazole-P, turfgrass received irrigation within 24 hours after application to flush chemicals to the root zone. After treatment, turfgrasses were arranged in a randomized complete block experimental design. Turfgrass quality, turfgrass height or clip fresh weight was measured on assigned dates. Turfgrass quality was visually rated on a 0-9 scale based on the color, uniformity and density of the grass with 0 as the worst and 9 as the best. Turfgrass height was measured as the distance between canopy surface and soil. Clips were collected from each plot; all plots were cut to a uniform height.
(§4) All experiments were randomized complete block experimental design. Data were analyzed by analysis of variance. Duncan's new multiple range tests at α=0.05 were used for mean separations.
Kentucky bluegrass sod (unknown variety) was purchased from Deak sod farms, Inc. (Union Grove, Wis.). Grass was grown in the greenhouse in pots (n=6 pots per treatment) for establishment before treatment. […] Turfgrass quality was evaluated at 7 days after treatment, and turfgrass height was measured at 7 and 28 days after treatment. Tween 20 (0.05% w/v) was included as an adjuvant. The turfgrass canopy was cut every 7 days during the experimental period.

Kentucky bluegrass [2] = assay: Greenhouse Kentucky bluegrass height, ABA and uniconazole-P (Example 3); settings: 10 ppm uniconazole-P
Experimental: as §1, §2, §3, §4
Kentucky bluegrass sod (unknown variety) was purchased from Deak sod farms, Inc. (Union Grove, Wis.). Grass was grown in the greenhouse in pots (n=6 pots per treatment) for establishment before treatment. […] Tween 20 (0.05% w/v) was included as an adjuvant. The turfgrass was cut every 7 days.

creeping bentgrass = assay: Golf course green creeping bentgrass height, clip weight and quality, ABA and uniconazole-P (Example 5); settings: 0.5 ppm uniconazole-P
Experimental: Field studies were conducted at the nursery green or the practice green at Countryside golf course (Mundelein, Ill.). Both greens were sand based and growing Penncross creeping bentgrass. Grass was managed with typical Illinois golf course management practices.
as §2, §3, §4
Tween 20 (0.05% w/v) was included as an adjuvant.

Bermudagrass = Bermudagrass clip weight, ABA and uniconazole-P (Example 7); settings: 50 ppm uniconazole-P; 7 days after treatment
Experimental: as §2, §3, §4

CC(C)(C)[C@@H](O)[C@@H](Cc1ccc(Cl)cc1)n1cncn1 [paclobutrazol]
Turfgrass height (Kentucky bluegrass [1]; 50 ppm paclobutrazol, 7 days after treatment): 12.3 cm
Turfgrass height (Kentucky bluegrass [1]; 50 ppm paclobutrazol, 28 days after treatment): 8.6 cm
Turfgrass height (Kentucky bluegrass [1]; 500 ppm paclobutrazol, 7 days after treatment): 12.1 cm
Turfgrass height (Kentucky bluegrass [1]; 500 ppm paclobutrazol, 28 days after treatment): 6.2 cm

CC(C)(C)[C@H](O)/C(=C\c1ccc(Cl)cc1)n1cncn1 [uniconazole-P]
Turfgrass height (Kentucky bluegrass [2]; 7 days after treatment): 12.3 cm
Turfgrass height (Kentucky bluegrass [2]; 42 days after treatment): 9.8 cm
Clip weight (creeping bentgrass; 7 days after treatment): 2.4 g
Turfgrass height (creeping bentgrass; 7 days after treatment): 6.0 cm
Clip weight (creeping bentgrass; 49 days after treatment): 3.3 g
Turfgrass height (creeping bentgrass; 49 days after treatment): 4.8 cm
Effect on turfgrass quality (creeping bentgrass; throughout the study (not shown)): No effect on turfgrass quality
Clip weight (Bermudagrass): 1.4 g
less clip weight compared to control (Bermudagrass): 14%
